Measured values: the NIST ThermoML archive (doi:10.1016/j.jct.2012.11.020)

Assay: xn = mol fraction of the nth substance listed
Details: 100 kPa, Liquid; for electrical conductivity: Alternating current cell with electrodes; for viscosity: Cone and plate viscometry; for mass density: Vibrating tube method

C1CC[NH2+]C1.O=[N+]([O-])[O-] [pyrrolidinium nitrate] + CC1COC(=O)O1
Details	electrical conductivity [S/m]	mass density [kg/m3]	viscosity [mPa·s]
258.15 K, x1 = 0.3	0.387	–	–
260.15 K, x1 = 0.1	0.142	–	–
260.15 K, x1 = 0.22	0.315	–	–
262.15 K, x1 = 0.5	0.673	–	–
263.15 K, x1 = 0.3	0.481	–	–
266.45 K, x1 = 0.22	0.376	–	–
268.15 K, x1 = 0.1	0.207	–	–
268.15 K, x1 = 0.3	0.585	–	–
268.15 K, x1 = 0.5	0.91	–	–
270.15 K, x1 = 0.8	0.0803	–	–
273.15 K, x1 = 0.1	0.243	–	–
273.15 K, x1 = 0.22	0.446	–	–
273.15 K, x1 = 0.3	0.694	–	–
273.15 K, x1 = 0.5	1.1	–	–
273.15 K, x1 = 0.8	0.118	–	–
278.15 K, x1 = 0.1	0.281	–	–
278.15 K, x1 = 0.22	0.505	–	–
278.15 K, x1 = 0.3	0.807	–	–
278.15 K, x1 = 0.5	1.19	–	–
278.15 K, x1 = 0.8	0.206	–	–
283.15 K, x1 = 0.1	0.322	1221	5.97
283.15 K, x1 = 0.22	0.562	1225.2	7.55
283.15 K, x1 = 0.3	0.92	1227.5	9.98
283.15 K, x1 = 0.4	–	1229.8	14.1
283.15 K, x1 = 0.5	1.49	1231.5	18.85
283.15 K, x1 = 0.62	–	1233	23.36
283.15 K, x1 = 0.7	–	1233.3	28.76
283.15 K, x1 = 0.8	0.352	1234	35.56
283.15 K, x1 = 1	–	1235	58.87
284.15 K, x1 = 1	2.93	–	–
288.15 K, x1 = 0.1	0.362	–	–
288.15 K, x1 = 0.22	0.606	–	–
288.15 K, x1 = 0.3	1.04	–	–
288.15 K, x1 = 0.5	1.7	–	–
288.15 K, x1 = 0.8	0.644	–	–
293.15 K, x1 = 0.1	0.405	1211	4.71
293.15 K, x1 = 0.22	0.702	1215.8	5.73
293.15 K, x1 = 0.3	1.17	1218.5	7.37
293.15 K, x1 = 0.4	–	1221.2	10.17
293.15 K, x1 = 0.5	1.91	1223.1	13.06
293.15 K, x1 = 0.62	–	1225	17.16
293.15 K, x1 = 0.7	–	1225.6	20.39
293.15 K, x1 = 0.8	1.44	1226.5	24.65
293.15 K, x1 = 1	3.71	1228	40.29
298.15 K, x1 = 0.1	0.449	–	–
298.15 K, x1 = 0.22	0.745	–	–
298.15 K, x1 = 0.3	1.3	–	–
298.15 K, x1 = 0.5	2.13	–	–
298.15 K, x1 = 0.8	2.49	–	–
298.15 K, x1 = 1	4.22	–	–
303.15 K, x1 = 0.1	0.497	1200.9	3.6
303.15 K, x1 = 0.22	0.832	1206.4	4.5
303.15 K, x1 = 0.3	1.44	1209.5	5.71
303.15 K, x1 = 0.4	–	1212.6	7.73
303.15 K, x1 = 0.5	2.37	1214.9	9.78
303.15 K, x1 = 0.62	–	1216.9	12.55
303.15 K, x1 = 0.7	–	1218	15.17
303.15 K, x1 = 0.8	2.8	1218.9	18.53
303.15 K, x1 = 1	–	1220.4	28.81
304.15 K, x1 = 1	4.94	–	–
308.15 K, x1 = 0.1	0.546	–	–
308.15 K, x1 = 0.22	0.93	–	–
308.15 K, x1 = 0.3	1.59	–	–
308.15 K, x1 = 0.5	2.62	–	–
308.15 K, x1 = 0.8	3.13	–	–
313.15 K, x1 = 0.1	0.597	1191	2.66
313.15 K, x1 = 0.22	1.03	1197	3.64
313.15 K, x1 = 0.3	1.74	1200.6	4.57
313.15 K, x1 = 0.4	–	1204.1	6.07
313.15 K, x1 = 0.5	2.88	1206.7	7.59
313.15 K, x1 = 0.62	–	–	9.6
313.15 K, x1 = 0.7	–	–	11.72
313.15 K, x1 = 0.8	3.46	–	14.49
313.15 K, x1 = 1	5.97	–	20.91
